Source: article PMC9023544, “Ketone-selenoesters as potential anticancer and multidrug resistance modulation agents in 2D and 3D ovarian and breast cancer in vitro models” (Scientific Reports, 2022)

How the values were obtained:
Assay in all cases: 3D spheroid formation
HOC/ADR spheroids = type: cell-based, human; settings: 1 µM
Procedure: (§1) To monitor the effect of selenoesters on spheroid formation, HOC, HOC/ADR, MCF-7 and MCF-7/PAX cell lines were used. 24 h after HOC cells’ inoculation, the diameter of formed spheroids was measured. The spheroids with diameters above 200 µm are characterized by the presence of a concentration gradient of oxygen, nutrients, and metabolites. The ovarian cancer cells (HOC, HOC/ADR) formed aggregates in which single cells could be recognized (Figs. 3, 4). In contrast, breast cancer cell lines (MCF-7, MCF-7/PAX) (Figs. 5, 6) formed compact spheroids where individual cells could not be distinguished because of close cell–cell interactions. According to this fact, the easier penetration and action of compounds into spheroids of ovarian cancer cells is expected. Upon selenoesters’ addition, the images of spheroids were taken regularly to determine their areas relative to the control spheroids in medium containing the solvent (1% V/V DMSO).
(§2) Human ovarian and breast cancer cells (parental and resistant) were seeded into U bottom 96-well plates (VWR, Radnor, Pennsylvania, United States) coated with 0.8% SeaKem LE Agarose at a cell density 0.5 × 10^5 cells/mL (HOC, HOC/ADR) and 1 × 10^5 cell/mL (MCF-7, MCF-7/PAX) in 100 µL of medium with appropriate cytostatic agent. After 24 h, the plates were enriched with 100 µL of medium with tested compounds K3, K4, K7 at the final concentration of 1 µM, except for control cells (100 µL medium with 1% V/V DMSO). Spheroids were recorded 0; 24; 48 and 72 h after exposure to tested compounds by using the light microscope Axio Vert. A1 (Zeiss, Jena, Germany) with photo documentation equipment, Axiocam ICC 1 and Axio Vision 4.8 software (Zeiss), and the spheroid areas were determined by using ImageJ (National Institute of Health, Bethesda, Maryland, United States). Subsequently, a spheroid growth was calculated according to equation: Spheroid area%=SAS at t/SAC at t×100 where SAS represents the area of spheroids treated with the compound; SAC is the control spheroid area; and the exposure time (t = 0; 24; 48; 72 h).

MCF-7 spheroids = type: cell-based, human; settings: 1 µM, whole treatment (24–72 h)
Procedure: as §1, §2

HOC spheroids = type: cell-based; settings: Homo sapiens, 24 h, read-out: inhibition of HOC spheroid growth
Procedure: as §1, with “According to this fact, the easier penetration and action of compounds into spheroids of ovarian cancer cells is expected. Upon selenoesters’ addition, the images of spheroids were taken regularly to determine their areas relative to the control spheroids in medium containing the solvent (1% V/V DMSO).” left out
Human ovarian and breast cancer cells (parental and resistant) were seeded into U bottom 96-well plates (VWR, Radnor, Pennsylvania, United States) coated with 0.8% SeaKem LE Agarose at a cell density 0.5 × 10^5 cells/mL (HOC, HOC/ADR) and 1 × 10^5 cell/mL (MCF-7, MCF-7/PAX) in 100 µL of medium with appropriate cytostatic agent. […] Spheroids were recorded 0; 24; 48 and 72 h after exposure to tested compounds by using the light microscope Axio Vert. A1 (Zeiss, Jena, Germany) with photo documentation equipment, Axiocam ICC 1 and Axio Vision 4.8 software (Zeiss), and the spheroid areas were determined by using ImageJ (National Institute of Health, Bethesda, Maryland, United States). […]

MCF-7/PAX spheroids = type: cell-based, human; settings: 1 µM, first 24 h
Procedure: as §1, §2

Compound	decrease of HOC/ADR spheroid growth (HOC/ADR spheroids; first 24 h) [%]	MCF-7 spheroid growth relative to control (MCF-7 spheroids)	inhibition at 1 µM (HOC spheroids) [%]	HOC/ADR spheroid area compared to the control (HOC/ADR spheroids) [%]	effect on MCF-7/PAX spheroid growth (in words) (MCF-7/PAX spheroids)
CC(=O)C[Se]C(=O)c1ccc(Br)cc1 [K3]	45	under 80%			
CC(=O)C[Se]C(=O)c1ccc(C(C)(C)C)cc1 [K7]			> 40	75	slowed down
